The source of these data is ChEMBL document CHEMBL2429754, “Design of novel focal adhesion kinase inhibitors using 3D-QSAR and molecular docking” (Med Chem Res, 2013).

In the test the test system is 4T1. Briefly: Induction of apoptosis in mouse 4T1 cells after 72 hrs using propidium iodide staining byflow cytometry analysis. In kind it is functional, cell-based. The settings on record: 4T1, 72 h.

The structures appear in SMILES notation. pIC50: −log10 of the molar value.

One may read the pIC50 as −log10 of the IC50, conventionally taken in molar units. Take `CNC(=O)c1ccccc1Nc1cc(Nc2ccc(N3CCOCC3)cc2OC)ncc1C(F)(F)F`: the pIC50 is 7.00.
